Assay results as given in ChEMBL document CHEMBL1201862, “PubChem BioAssay data set” (2004).
The source made the active and inactive calls.

What was measured:
Type in all cases: functional
[1] = target: T1, Protein RecA (Mycobacterium tuberculosis, UniProt P9WHJ3); experiment: Fluorescence Cell-Free Homogeneous Dose Retest to Identify Inhibitors of RecA-Intein Splicing Activity. [Related pubchem assays (depositor defined):AID2097, AID2223, AID489010, AID492950]
T1 sequence (P9WHJ3 whole entry): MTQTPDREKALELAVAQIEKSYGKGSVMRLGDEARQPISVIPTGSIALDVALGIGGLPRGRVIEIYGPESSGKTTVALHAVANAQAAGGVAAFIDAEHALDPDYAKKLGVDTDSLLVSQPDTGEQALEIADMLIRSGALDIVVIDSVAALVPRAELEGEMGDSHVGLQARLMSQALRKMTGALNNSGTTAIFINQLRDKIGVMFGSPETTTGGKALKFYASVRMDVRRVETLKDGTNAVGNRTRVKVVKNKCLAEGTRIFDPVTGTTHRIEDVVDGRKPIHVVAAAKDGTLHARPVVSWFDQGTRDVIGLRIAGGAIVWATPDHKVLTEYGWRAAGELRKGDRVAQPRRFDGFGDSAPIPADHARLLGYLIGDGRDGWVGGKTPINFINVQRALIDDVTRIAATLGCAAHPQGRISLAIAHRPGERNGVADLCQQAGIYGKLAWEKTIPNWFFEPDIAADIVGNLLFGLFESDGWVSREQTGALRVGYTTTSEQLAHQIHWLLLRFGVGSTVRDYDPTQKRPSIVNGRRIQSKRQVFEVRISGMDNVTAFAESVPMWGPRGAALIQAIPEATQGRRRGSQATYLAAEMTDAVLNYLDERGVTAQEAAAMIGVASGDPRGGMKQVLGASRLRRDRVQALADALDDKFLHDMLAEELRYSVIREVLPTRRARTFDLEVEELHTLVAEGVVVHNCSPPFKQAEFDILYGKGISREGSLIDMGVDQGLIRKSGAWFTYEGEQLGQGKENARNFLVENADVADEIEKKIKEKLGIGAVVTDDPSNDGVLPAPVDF

[2] = target: T2, Caspase-3 (Homo sapiens, UniProt P42574); experiment: SAR Analysis of small molecule inhibitors of Sentrin-specific proteases (SENPs) using a Caspase-3 Selectivity assay. [Related pubchem assays (depositor defined):AID2540, AID2599, AID434973, AID489001]
T2 sequence (P42574 whole entry): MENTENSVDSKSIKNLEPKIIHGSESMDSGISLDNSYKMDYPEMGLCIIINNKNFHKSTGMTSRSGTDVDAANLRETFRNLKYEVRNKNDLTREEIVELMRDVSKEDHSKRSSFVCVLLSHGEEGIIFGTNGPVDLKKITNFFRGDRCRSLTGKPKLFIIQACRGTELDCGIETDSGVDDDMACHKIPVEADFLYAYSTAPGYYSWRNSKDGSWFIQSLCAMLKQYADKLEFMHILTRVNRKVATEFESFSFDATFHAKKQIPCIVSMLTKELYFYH

[3] = target: T3, Sentrin-specific protease 6 (Homo sapiens, UniProt Q9GZR1); experiment: SAR Analysis of small molecule inhibitors of Sentrin-specific protease 6 (SENP6) using a Luminescent assay. [Related pubchem assays (depositor defined):AID2582, AID2599]
T3 sequence (Q9GZR1 whole entry): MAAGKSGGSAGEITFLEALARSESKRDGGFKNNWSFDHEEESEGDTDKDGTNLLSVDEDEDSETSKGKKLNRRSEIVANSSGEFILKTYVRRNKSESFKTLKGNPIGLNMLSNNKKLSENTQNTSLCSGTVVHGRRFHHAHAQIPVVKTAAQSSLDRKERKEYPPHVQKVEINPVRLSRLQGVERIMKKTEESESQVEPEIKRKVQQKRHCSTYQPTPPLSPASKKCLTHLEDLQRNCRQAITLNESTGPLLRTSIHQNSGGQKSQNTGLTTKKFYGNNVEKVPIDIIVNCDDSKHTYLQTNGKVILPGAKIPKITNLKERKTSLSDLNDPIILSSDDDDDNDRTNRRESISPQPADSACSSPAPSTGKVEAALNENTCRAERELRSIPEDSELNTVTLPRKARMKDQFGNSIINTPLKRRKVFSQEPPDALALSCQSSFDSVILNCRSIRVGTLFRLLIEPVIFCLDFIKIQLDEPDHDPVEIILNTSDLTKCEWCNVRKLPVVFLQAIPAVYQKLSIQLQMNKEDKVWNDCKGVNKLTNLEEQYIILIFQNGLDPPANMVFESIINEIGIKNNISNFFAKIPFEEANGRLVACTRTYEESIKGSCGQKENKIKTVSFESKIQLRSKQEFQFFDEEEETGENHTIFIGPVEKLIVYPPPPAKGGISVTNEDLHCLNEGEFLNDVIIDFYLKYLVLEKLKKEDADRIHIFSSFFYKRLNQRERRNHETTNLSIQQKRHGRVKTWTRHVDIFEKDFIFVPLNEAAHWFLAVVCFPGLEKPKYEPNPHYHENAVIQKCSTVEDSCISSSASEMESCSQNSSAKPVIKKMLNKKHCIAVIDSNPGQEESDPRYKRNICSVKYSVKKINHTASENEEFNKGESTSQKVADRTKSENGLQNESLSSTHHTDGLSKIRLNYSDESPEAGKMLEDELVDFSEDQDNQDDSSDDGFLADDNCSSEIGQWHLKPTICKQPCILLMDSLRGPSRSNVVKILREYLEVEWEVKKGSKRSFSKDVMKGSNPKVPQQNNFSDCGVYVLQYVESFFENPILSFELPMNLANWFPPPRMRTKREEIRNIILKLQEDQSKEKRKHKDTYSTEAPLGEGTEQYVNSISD

[4] = target: Serine/threonine-protein kinase PAK 4 (Homo sapiens, UniProt O96013);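 further: value obtained within a kinome profiling panel in which PAK4 was one of the panel members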
[5] = target: Tyrosine-protein kinase Fyn (Homo sapiens, UniProt P06241)
Sequence of Tyrosine-protein kinase Fyn (P06241 whole entry): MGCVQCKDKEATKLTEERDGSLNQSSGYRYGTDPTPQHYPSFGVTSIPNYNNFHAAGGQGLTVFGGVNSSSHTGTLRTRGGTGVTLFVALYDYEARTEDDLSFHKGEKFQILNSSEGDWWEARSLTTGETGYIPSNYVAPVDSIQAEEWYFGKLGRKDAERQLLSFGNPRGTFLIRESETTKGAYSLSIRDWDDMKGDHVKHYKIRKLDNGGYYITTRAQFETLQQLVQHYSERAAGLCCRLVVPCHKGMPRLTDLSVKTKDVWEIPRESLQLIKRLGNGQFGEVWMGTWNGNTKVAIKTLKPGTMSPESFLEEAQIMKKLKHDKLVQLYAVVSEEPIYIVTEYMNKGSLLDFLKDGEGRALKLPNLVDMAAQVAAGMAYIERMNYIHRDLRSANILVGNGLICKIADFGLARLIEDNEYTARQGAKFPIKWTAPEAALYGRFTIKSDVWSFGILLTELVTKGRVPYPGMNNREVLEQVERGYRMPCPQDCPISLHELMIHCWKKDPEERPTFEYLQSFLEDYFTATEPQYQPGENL

Sequence of Serine/threonine-protein kinase PAK 4 (O96013 whole entry): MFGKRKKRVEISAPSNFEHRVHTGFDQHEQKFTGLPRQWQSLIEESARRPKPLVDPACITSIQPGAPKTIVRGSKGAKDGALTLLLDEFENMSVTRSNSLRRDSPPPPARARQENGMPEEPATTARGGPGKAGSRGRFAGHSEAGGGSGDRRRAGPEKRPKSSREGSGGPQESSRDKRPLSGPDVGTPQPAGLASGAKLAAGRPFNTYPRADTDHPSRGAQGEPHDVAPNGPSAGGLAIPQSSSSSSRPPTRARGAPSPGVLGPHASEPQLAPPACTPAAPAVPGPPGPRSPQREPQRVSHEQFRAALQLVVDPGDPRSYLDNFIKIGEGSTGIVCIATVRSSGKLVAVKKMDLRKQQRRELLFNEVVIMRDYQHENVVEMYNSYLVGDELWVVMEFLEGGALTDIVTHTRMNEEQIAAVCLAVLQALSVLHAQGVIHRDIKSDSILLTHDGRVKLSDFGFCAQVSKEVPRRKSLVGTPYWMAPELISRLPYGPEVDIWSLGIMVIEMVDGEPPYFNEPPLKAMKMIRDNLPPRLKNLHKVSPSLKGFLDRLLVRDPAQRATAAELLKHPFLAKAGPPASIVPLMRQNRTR

Row | SMILES | EC50 [1] | IC50 [2] | IC50 [3] | Ki [4] | Ki [5]
1 | O=C(NC1=C(Nc2ccc(F)cc2)C(=O)c2ccccc2C1=O)c1ccc(Cl)cc1 | 25.9 µM (inconclusive) |  |  |  | 
2 | COc1cc2cc(NC(C)=O)cc(NCc3ccccc3)c2cc1OC |  | > 99 µM (inactive) | 40.4 µM (active) |  | 
3 | Oc1nc(Nc2ccc(F)cc2)cc2ccccc12 | 1.21 µM (active) |  |  |  | 
4 | CN(C)c1cc(N/N=C\c2ccccc2)nc(N(C)C)n1 |  | 79.3 µM (active) | 11.3 µM (active) |  | 
5 | O=C1Nc2cc(-c3ccc(O)cc3)ccc2C1=Cc1ccc[nH]1 |  |  |  | > 5.01 µM (inactive) | > 6.31 µM (inactive)
6 | NC(COc1cncc(-c2ccc3c(c2)C(=Cc2ccc[nH]2)C(=O)N3)c1)Cc1ccccc1 (stereo not given) |  |  |  | 0.0316 µM (active) | 0.398 µM (active)
